# Tests used:
# [1] = Inhibition of growth after 72 hr continuous exposure to test compounds in Ovarian A2780 tumor cell lines; type: functional; conditions: A2780, 72 h
# [2] = Inhibition of growth after 72 hr continuous exposure to test compounds in colon HT-29 tumor cell lines; type: functional; conditions: Homo sapiens, HT-29, 72 h
# [3] = Inhibition of growth after 72 hr continuous exposure to test compounds in Ovarian ADDP tumor cell lines; type: functional
# [4] = Inhibition of growth after 72 hr continuous exposure to test compounds in Colon HCT 116 tumor cell lines; type: functional; conditions: Homo sapiens, HCT-116, 72 h
# [5] = Inhibition of growth after 72 hr continuous exposure to test compounds in Osteosarcoma 143B tumor cell lines; type: functional; conditions: Homo sapiens
# [6] = Inhibition of microcystin analogues to catalytic subunits of Serine/threonine protein phosphatase 1C
# [7] = Exogenous inhibition concentration of Serine/threonine protein phosphatase 2B (PP2B)
# [8] = Exogenous inhibition of Serine/threonine protein phosphatase 1 (PP1); design: species or system Homo sapiens
# [9] = Exogenous inhibition concentration of Serine/threonine protein phosphatase 2C (PP2C); NI means no inhibition.
# Jurkat [10] = assay: Inhibition of production of IL-2 secretion in Jurkat cells; type: functional, cell-based; conditions: Homo sapiens
# Jurkat [11] = assay: Inhibition of production of beta-galactosidase thymidine kinase RGA in Jurkat cells; type: functional, cell-based; conditions: Homo sapiens
# Jurkat [12] = assay: Inhibition of production of beta-galactosidase IL-2 RGA in Jurkat cells; type: functional, cell-based; conditions: Homo sapiens
# HCT-8 = assay: Reduction of tumor cell growth to 50% in Fostriecin analogues in HCT-8 colon cancer cell lines; type: functional; conditions: Homo sapiens
# L1210 = assay: Reduction of tumor cell growth to 50% in Fostriecin analogues in L1210 Leukemia cell lines; type: functional; conditions: Mus musculus
# [13] = Exogenous inhibition concentration of Serine/threonine protein phosphatase 5 (PP5)
# [14] = molecular target: Serine/threonine-protein phosphatase PP1-gamma catalytic subunit (Homo sapiens, UniProt P36873, C127S); assay: Inhibition of Serine/threonine protein phosphatase 1 (PP1) mutants by natural toxins in C127S
# [15] = molecular target: T1, Serine/threonine-protein phosphatase PP1-gamma catalytic subunit (Homo sapiens, UniProt P36873); assay: Inhibition of Serine/threonine protein phosphatase 1 (PP1) mutants by natural toxins in wild type
# Target sequence in this assay (P36873 2-323 limits assumed, stated change not applied): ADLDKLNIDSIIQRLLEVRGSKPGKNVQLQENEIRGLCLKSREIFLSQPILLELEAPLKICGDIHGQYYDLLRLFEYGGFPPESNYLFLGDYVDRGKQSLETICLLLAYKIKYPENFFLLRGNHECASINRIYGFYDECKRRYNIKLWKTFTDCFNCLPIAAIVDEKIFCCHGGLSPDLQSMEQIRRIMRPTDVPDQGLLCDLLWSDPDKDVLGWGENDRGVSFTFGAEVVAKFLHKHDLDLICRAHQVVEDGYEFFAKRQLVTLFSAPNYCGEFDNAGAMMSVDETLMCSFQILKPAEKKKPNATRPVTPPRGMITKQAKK
# [16] = molecular target: Serine/threonine-protein phosphatase PP1-gamma catalytic subunit (Homo sapiens, UniProt P36873, D208A); assay: Inhibition of Serine/threonine protein phosphatase 1 (PP1) mutants by natural toxins in D208A
# [17] = molecular target: Serine/threonine-protein phosphatase PP1-gamma catalytic subunit (Homo sapiens, UniProt P36873, R96A); assay: Inhibition of Serine/threonine protein phosphatase 1 (PP1) mutants by natural toxins in R96A
# [18] = Exogenous inhibition concentration of Serine/threonine protein phosphatase 2A (PP2A)
# [19] = molecular target: Serine/threonine-protein phosphatase PP1-gamma catalytic subunit (Homo sapiens, UniProt P36873, N124D); assay: Inhibition of Serine/threonine protein phosphatase 1 (PP1) mutants by natural toxins in N124D
# [20] = molecular target: Serine/threonine-protein phosphatase PP1-gamma catalytic subunit (Homo sapiens, UniProt P36873, H248N); assay: Inhibition of Serine/threonine protein phosphatase 1 (PP1) mutants by natural toxins in H248N
# [21] = molecular target: Serine/threonine-protein phosphatase PP1-gamma catalytic subunit (Homo sapiens, UniProt P36873, R221S); assay: Inhibition of Serine/threonine protein phosphatase 1 (PP1) mutants by natural toxins in R221S
# [22] = molecular target: Serine/threonine-protein phosphatase PP1-gamma catalytic subunit (Homo sapiens, UniProt P36873, Y272F); assay: Inhibition of Serine/threonine protein phosphatase 1 (PP1) mutants by natural toxins in Y272F
# [23] = molecular target: Serine/threonine-protein phosphatase PP1-gamma catalytic subunit (Homo sapiens, UniProt P36873, E275R); assay: Inhibition of Serine/threonine protein phosphatase 1 (PP1) mutants by natural toxins in E275R
# [24] = molecular target: Serine/threonine-protein phosphatase PP1-gamma catalytic subunit (Homo sapiens, UniProt P36873, D220V); assay: Inhibition of Serine/threonine protein phosphatase 1 (PP1) mutants by natural toxins in D220V
# [25] = molecular target: T1, Serine/threonine-protein phosphatase PP1-gamma catalytic subunit; assay: Inhibition of Serine/threonine protein phosphatase 1 by anhydride modified Cantharidin analogues
# Target sequence in this assay (P36873 whole entry): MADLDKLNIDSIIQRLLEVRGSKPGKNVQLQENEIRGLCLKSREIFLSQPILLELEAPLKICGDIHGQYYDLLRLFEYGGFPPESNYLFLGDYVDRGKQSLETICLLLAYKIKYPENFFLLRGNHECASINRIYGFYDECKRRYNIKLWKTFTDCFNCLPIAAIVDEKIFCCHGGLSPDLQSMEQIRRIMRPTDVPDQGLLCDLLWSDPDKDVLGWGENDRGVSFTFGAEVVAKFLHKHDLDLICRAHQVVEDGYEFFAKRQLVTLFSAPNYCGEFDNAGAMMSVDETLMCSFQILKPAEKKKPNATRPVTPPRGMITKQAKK
# Sequence of Serine/threonine-protein phosphatase PP1-gamma catalytic subunit (Homo sapiens, UniProt P36873, D220V) (P36873 2-323 D220V limits assumed): as the sequence (P36873 2-323 limits assumed, stated change not applied) above, with D219V counted along it
# Sequence of Serine/threonine-protein phosphatase PP1-gamma catalytic subunit (Homo sapiens, UniProt P36873, R96A) (P36873 2-323 R96A limits assumed): as the sequence (P36873 2-323 limits assumed, stated change not applied) above, with R95A counted along it
# Sequence of Serine/threonine-protein phosphatase PP1-gamma catalytic subunit (Homo sapiens, UniProt P36873, C127S) (P36873 2-323 C127S limits assumed): as the sequence (P36873 2-323 limits assumed, stated change not applied) above, with C126S counted along it
# Sequence of Serine/threonine-protein phosphatase PP1-gamma catalytic subunit (Homo sapiens, UniProt P36873, E275R) (P36873 2-323 E275R limits assumed): as the sequence (P36873 2-323 limits assumed, stated change not applied) above, with E274R counted along it
# Sequence of Serine/threonine-protein phosphatase PP1-gamma catalytic subunit (Homo sapiens, UniProt P36873, D208A) (P36873 2-323 D208A limits assumed): as the sequence (P36873 2-323 limits assumed, stated change not applied) above, with D207A counted along it
# Sequence of Serine/threonine-protein phosphatase PP1-gamma catalytic subunit (Homo sapiens, UniProt P36873, H248N) (P36873 2-323 H248N limits assumed): as the sequence (P36873 2-323 limits assumed, stated change not applied) above, with H247N counted along it
# Sequence of Serine/threonine-protein phosphatase PP1-gamma catalytic subunit (Homo sapiens, UniProt P36873, N124D) (P36873 2-323 N124D limits assumed): as the sequence (P36873 2-323 limits assumed, stated change not applied) above, with N123D counted along it
# Sequence of Serine/threonine-protein phosphatase PP1-gamma catalytic subunit (Homo sapiens, UniProt P36873, Y272F) (P36873 2-323 Y272F limits assumed): as the sequence (P36873 2-323 limits assumed, stated change not applied) above, with Y271F counted along it
# Sequence of Serine/threonine-protein phosphatase PP1-gamma catalytic subunit (Homo sapiens, UniProt P36873, R221S) (P36873 2-323 R221S limits assumed): as the sequence (P36873 2-323 limits assumed, stated change not applied) above, with R220S counted along it
smiles,measurement,setting,value
CCCOC1OC(=O)[C@H]2[C@@H]1[C@@H]1CC[C@H]2O1 (stereo partly specified),GI50,[1],375 µM
same,GI50,[2],41 µM
same,GI50,[3],535 µM
same,GI50,[4],195 µM
same,GI50,[5],> 1000 µM
CCCOC(=O)C1C(C(=O)O)C2CC[C@H]1O2 (stereo partly specified),GI50,[1],110 µM
same,GI50,[2],15 µM
same,GI50,[3],315 µM
same,GI50,[4],75 µM
same,GI50,[5],450 µM
C=C1C(=O)N[C@H](C)C(=O)N[C@@H](CC2CCCCC2)C(=O)C[C@@H](C(=O)O)[C@H](C)C(=O)N[C@@H](C)C(=O)N[C@@H](/C=C/C(C)=C/[C@H](C)[C@H](Cc2ccccc2)OC)[C@H](C)C(=O)N[C@@H](C(=O)O)CCC(=O)N1C,IC50,[6],0.00052 µM
COC(=O)C1C(C(=O)O)C2CC[C@H]1O2 (stereo partly specified),GI50,[1],100 µM
same,GI50,[2],105 µM
same,GI50,[3],180 µM
same,GI50,[4],76 µM
same,GI50,[5],118 µM
C/C=C1/C(=O)C[C@@H](C(=O)O)[C@H](C)C(=O)N[C@@H](C(C)C)C(=O)N[C@@H](/C=C/C(C)=C/[C@H](C)[C@H](Cc2ccccc2)OC)[C@H](C)C(=O)N[C@@H](C(=O)O)CCC(=O)N1C,IC50,[7],8700 µM
same,IC50,[8],0.0018 µM
same,IC50,[9],no inhibition
CN(C)C(=O)C1C(C(=O)O)C2CC[C@H]1O2 (stereo partly specified),IC50,Jurkat [10],5 µM
same,IC50,Jurkat [11],100 µM
same,IC50,Jurkat [12],4.7 µM
C/C=C/C=C\C=C/[C@H](O)C[C@@H](OP(=O)(O)O)[C@](C)(O)/C=C/[C@H]1CC=CC(=O)O1,GI50,HCT-8,1.5 µM
same,GI50,L1210,0.22 µM
CO[C@@H](Cc1ccccc1)[C@@H](C)/C=C(C)/C=C/[C@@H]1NC(=O)[C@H](C)NC(=O)[C@@H](C)[C@H](C(=O)O)CC(=O)[C@H](CC(C)C)NC(=O)[C@@H](C)NC(=O)CN(C)C(=O)CC[C@H](C(=O)O)NC(=O)[C@H]1C,IC50,[6],0.0008 µM
COC[C@@H]([C@H](O)[C@H](O)C(=O)NCC[C@H](C)c1nc(/C=C/C[C@@H]2O[C@]3(C[C@@H](O)[C@@H]2C)O[C@H]([C@H](C[C@H](O)[C@H](C)[C@H](O)[C@H](C)/C=C(C)/C(C)=C/C=C/C(C)=C\C#N)OC)[C@H](OP(=O)(O)O)C3(C)C)co1)N(C)C [CALYCULIN A],IC50,[13],< 0.003 µM
same,IC50,[14],0.0022 µM
same,IC50,[7],> 10000 µM
same,IC50,[15],0.00045 µM
same,IC50,[16],> 0.5 µM
same,IC50,[8],0.0003 µM
same,IC50,[17],0.058 µM
same,IC50,[18],0.0002 µM
same,IC50,[9],no inhibition
same,IC50,[19],> 0.5 µM
same,IC50,[20],> 0.5 µM
same,IC50,[21],> 0.5 µM
same,IC50,[22],0.048 µM
same,IC50,[23],0.0004 µM
same,IC50,[24],0.00014 µM
C[C@@](O)(/C=C/COC(=O)/C=C\CO)[C@@H](C[C@@H](O)\C=C/C=C\C=C\CO)OP(=O)(O)O,GI50,HCT-8,56 µM
same,GI50,L1210,> 1 µM
CC(=O)OC(C)(C)[C@H]1CC[C@](C)([C@@H](O)CC[C@](C)(O)[C@H]2CC[C@H]3O[C@@H]([C@]4(C)CC[C@@H](Br)C(C)(C)O4)CC[C@]3(C)O2)O1,IC50,[7],> 10000 µM
same,IC50,[8],> 1000 µM
same,IC50,[18],4 µM
C=C1C(=O)N[C@H](CN)C(=O)N[C@@H](CC(C)C)C(=O)C[C@@H](C(=O)O)[C@H](C)C(=O)N[C@@H](C)C(=O)N[C@@H](/C=C/C(C)=C/[C@H](C)[C@H](Cc2ccccc2)OC)[C@H](C)C(=O)N[C@@H](C(=O)O)CCC(=O)N1C,IC50,[6],0.003 µM
O=C1OC(=O)C2C3CCC(O3)C12 (stereo unspecified),GI50,[1],50 µM
same,IC50,Jurkat [11],100 µM
same,GI50,[2],33 µM
same,GI50,[3],47 µM
same,GI50,[4],24 µM
same,IC50,Jurkat [12],> 22 µM
same,GI50,[5],43 µM
CCOC1OC(=O)[C@H]2[C@@H]1[C@@H]1CC[C@H]2O1 (stereo partly specified),GI50,[1],100 µM
same,GI50,[2],26 µM
same,GI50,[3],107 µM
same,GI50,[4],80 µM
same,GI50,[5],103 µM
Cn1cc2c3c1C(=O)C1=C(C3=NCC2)C2(C=C(Br)C(=O)C(Br)=C2)CCN1 [DISCORHABDIN],IC50,[7],1.15 µM
C/C=C/C[C@@H](C)[C@@H](O)[C@H]1C(=O)N[C@@H](CC)C(=O)N(C)CC(=O)N(C)[C@@H](CC(C)C)C(=O)N[C@@H](C(C)C)C(=O)N(C)[C@@H](CC(C)C)C(=O)N[C@@H](C)C(=O)N[C@H](C)C(=O)N(C)[C@@H](CC(C)C)C(=O)N(C)[C@@H](CC(C)C)C(=O)N(C)[C@@H](C(C)C)C(=O)N1C [CYCLOSPORINE],IC50,Jurkat [10],0.007 µM
same,IC50,Jurkat [11],> 1 µM
same,IC50,Jurkat [12],0.008 µM
C=CC[C@@H]1/C=C(\C)C[C@H](C)C[C@H](OC)[C@H]2O[C@@](O)(C(=O)C(=O)N3CCCC[C@H]3C(=O)O[C@H](/C(C)=C/[C@@H]3CC[C@@H](O)[C@H](OC)C3)[C@H](C)[C@@H](O)CC1=O)[C@H](C)C[C@@H]2OC [TACROLIMUS ANHYDROUS],IC50,[7],0.0005 µM
C[C@@]12C(=O)OC(=O)[C@]1(C)[C@H]1CC[C@@H]2O1 [CANTHARIDIN],GI50,[1],10 µM
same,GI50,[2],6.4 µM
same,IC50,[7],> 1000 µM
same,GI50,[3],11 µM
same,GI50,[4],9 µM
same,IC50,[8],0.5 µM
same,GI50,[5],10 µM
CC1(C(=O)O)C2CCC(O2)C1(C)C(=O)O (stereo unspecified),IC50,[8],0.6 µM
same,IC50,[18],0.05 µM
C[C@@](O)(/C=C/[C@@H]1OC(=O)C=CC1O)[C@@H](C[C@@H](O)\C=C/C=C\C=C\CO)OP(=O)(O)O (stereo partly specified),GI50,HCT-8,4.2 µM
same,GI50,L1210,0.83 µM
CC[C@@H](C)[C@H]1NC(=O)[C@H]([C@@H](C)CC)NC(=O)[C@H]([C@@H](C)CC)NC(=O)[C@H]([C@@H](C)CC)NC(=O)[C@@H](Cc2ccccc2)NC(=O)[C@H](Cc2ccccc2)NC(=O)[C@@H]2CCCN2C(=O)[C@@H]2CCCN2C(=O)[C@H](C(C)C)NC1=O,IC50,[7],5 µM
C[C@]12C(=O)OC(=O)[C@H]1C1CC[C@H]2O1 [PALASONIN],IC50,[8],0.7 µM
same,IC50,[18],0.12 µM
O=C(O)[C@@H]1[C@H](C(=O)O)[C@H]2CC[C@@H]1O2,IC50,Jurkat [11],42 µM
same,IC50,Jurkat [12],> 100 µM
C[C@@](O)(/C=C/[C@H]1CC=CC(=O)O1)[C@@H](C[C@@H](O)\C=C/C=C\C=C\CO)OP(=O)(O)O [FOSTRIECIN],IC50,[8],131 µM
same,GI50,HCT-8,2.3 µM
same,GI50,L1210,0.21 µM
C[C@@](O)(/C=C/[C@H]1CC=CC(=O)O1)[C@H](O)C[C@@H](O)\C=C/C=C\C=C\CO,GI50,HCT-8,3.7 µM
same,GI50,L1210,2.5 µM
COC1OC(=O)[C@H]2[C@@H]1[C@@H]1CC[C@H]2O1 (stereo partly specified),GI50,[1],538 µM
same,GI50,[2],28 µM
same,IC50,[25],> 1000 µM
same,GI50,[3],323 µM
same,GI50,[4],143 µM
same,GI50,[5],> 1000 µM
CO[C@@H](Cc1ccccc1)[C@@H](C)/C=C(C)/C=C/[C@@H]1NC(=O)[C@H](C)NC(=O)[C@@H](C)[C@H](C(=O)O)CC(=O)[C@H](CC(C)C)NC(=O)[C@@H](C)NC(=O)CN(C2CCCCC2)C(=O)CC[C@H](C(=O)O)NC(=O)[C@H]1C,IC50,[6],0.0008 µM

# From ChEMBL document CHEMBL1135579, “Serine-threonine protein phosphatase inhibitors: development of potential therapeutic strategies” (J Med Chem, 2002)
